Assay results reported in patent US20260258039A1, “AROMATIC COMPOUND, METHOD FOR PREPARING SAME, AND USE THEREOF IN PREPARATION OF ESTROGEN RECEPTOR DEGRADER” (Hinova Pharmaceuticals Inc., priority 2022, published 2026).
Where two headings read alike, the source gives them in different places.

Assays:
Format in all cases: cell-based
[1] = system: MCF-7 breast cancer cells; experiment: Inhibition of proliferation of MCF-7 breast cancer cells (agarose culture, CellTiter-Glo 3D); conditions: Homo sapiens, MCF7, 360 h, MCF-7 cells, 15 days of cultivation; read-out: IC50
Description: After 1.6% agarose and 0.7% agarose were sterilized at high temperature, they were cooled to around 50° C., and placed in a 42° C. water bath for later use. MCF-7 breast cancer cells were subcultured in complete cell culture medium, and cells in good growth condition were digested and counted for future use. 50 µL of 1.6% agarose mixed with 2× culture medium at a ratio of 1:1 was spread into the bottom of 96-well plate, and allowed to cool and solidify. 0.7% agarose was mixed with diluted cell suspension in a ratio of 1:1, and then 50 µL of the mixture of gel and cells was added to each well, with 2000 cells for each well; the mixture was allowed to cool and solidify at room temperature. 50 μL of culture medium was added to the plate containing cells, and the plate was placed in a 37° C., 5% CO2 incubator and cultured for 24 h. The drug was prepared into 10 mM stock solution with dimethyl sulfoxide (DMSO). The stock solution was diluted in a ratio of 1:3, to obtain 9 concentration gradients. Then, each concentration of compound solution was further diluted with culture medium in 1:250 (to ensure a DMSO concentration of 0.1% in the culture system). Two replicate wells was set for each concentration. 50 μL of the diluted compound solution was added to the cell culture wells (with final concentrations of 10 μM, 3.3 μM, 1.1 μM, 0.37 μM . . . ). The plate was gently shaken for mixing. Additionally, 3 negative control wells only containing cells and 3 blank control wells only containing culture medium were set up (each of the 6 wells was added with 50 μL of DMSO diluted with culture medium in a ration of 1:250). After 15 days of cultivation, the cell plates and CellTiter-Glo 3D Cell Viability were taken out and equilibrated to room temperature in advance. 80 μL of culture medium were aspirated and discarded from the cell plate, and 120 µL of CellTiter-Glo 3D Cell Viability solution was added to each well. The plates were centrifuged at 1200 rpm/min for 5 min, and then placed in the dark and kept for 25 min. The […] were measured using a multi-function microplate reader. The data were analyzed using the Dose-response-inhibition equation in GraphPad Prism8 software, and the IC50 values were obtained, as shown in Table 3.

ER [2] = target: T1, ER (Homo sapiens, UniProt P03372); experiment: Degradation activities on ER (Western blotting) in T47D breast cancer cells; conditions: 24 h, Western blot
T1 construct: T47D breast cancer cells were subcultured in cell culture medium; endogenous in cells; host or cells: T47D breast cancer cells
T1 sequence (P03372 1-595): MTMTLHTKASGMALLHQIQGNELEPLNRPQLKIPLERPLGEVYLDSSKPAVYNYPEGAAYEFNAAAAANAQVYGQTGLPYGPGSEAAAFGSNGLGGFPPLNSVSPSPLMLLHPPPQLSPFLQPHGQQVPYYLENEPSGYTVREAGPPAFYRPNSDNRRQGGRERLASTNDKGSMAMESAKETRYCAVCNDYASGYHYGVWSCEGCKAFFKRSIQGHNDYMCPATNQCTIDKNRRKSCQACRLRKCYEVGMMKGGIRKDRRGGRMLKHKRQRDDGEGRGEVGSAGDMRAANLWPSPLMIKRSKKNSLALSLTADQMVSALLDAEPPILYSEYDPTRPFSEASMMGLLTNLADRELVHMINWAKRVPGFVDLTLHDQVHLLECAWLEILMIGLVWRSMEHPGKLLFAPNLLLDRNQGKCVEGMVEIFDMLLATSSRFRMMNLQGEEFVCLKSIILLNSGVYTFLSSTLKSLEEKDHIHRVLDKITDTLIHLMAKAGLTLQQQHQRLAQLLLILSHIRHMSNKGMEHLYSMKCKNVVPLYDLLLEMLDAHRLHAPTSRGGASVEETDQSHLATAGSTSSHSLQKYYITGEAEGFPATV
Description: T47D breast cancer cells were subcultured in cell culture medium, and the cells in good growth condition were seeded into 6-well plate at 2 mL/well, with 2.5×10^5 cells per well. The cells were incubated overnight in a 37° C. incubator under 5% CO2. The drug was prepared into 10 mM stock solution with dimethyl sulfoxide (DMSO). Prior to use, the stock solution was diluted with DMSO in a ratio of 1:3. […] of the diluted compound was added to the cell culture wells (to ensure a DMSO concentration of 0.1% in the culture system), and each concentration was repeated twice. The plate were gently shaken to mix. Additionally, the negative control wells (containing equal amount of DMSO) and the positive control wells were set up. After 24 hours of culture, the cells were lysed with RIPA cell lysis buffer to extract proteins, and the protein concentration was measured using a BCA kit. The protein loading buffer (5×) was added, and the plate was heated at 100° C. for 5 min. Then, the sample was stored at −20° C. […] of protein collected from each well was loaded onto a polyacrylamide gel for electrophoresis. The protein is transferred from the polyacrylamide gel to a PVDF membrane, blocked with 5% skim milk at room temperature for 1 h, and incubated overnight at 4° C. with primary antibodies Anti-ERα rabbit mAb (CST, Cat #: 8644S) and Anti-GAPDH rabbit mAb (CST, Cat #: 2118L). The membrane was washed three times with TBST solution, with 10 min for each time. The secondary antibody (horseradish peroxidase-labeled goat anti-rabbit IgG) was incubated at room temperature for 2 h, and then the membrane was washed three times with TBST solution, with 10 min for each time. Finally, ECL chromogenic solution was added for color development, and an automatic chemiluminescence instrument was used to take pictures. Images were collected and analyzed.
The degradation activities of the compounds according to the present invention towards ER, as tested by western blotting, are presented in Table 2

ER [3] = target: T1, ER; experiment: Degradation activities on ER (ELISA) in T47D breast cancer cells; conditions: for DC50: concentration required to degrade 50% of the target protein
Procedure, shortened: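 Cellular ER degradation ELISA: compound dosed 24 h on T47D cells (2.5×10^4/well, pre-grown 3 days) at six final levels from 100 nM downward. Remaining ER was detected by HRP-TMB absorbance at 450 nm. Dose-response fitting gave DC50 and Dmax, the maximal percentage degraded.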

[4] = T47D cells, 24 h, ELISA, maximum percentage of target protein degraded, read-out: Dmax

IC50 [1]	Percentage reduction of ER (ER [2]; compound concentration 10 nM)	Percentage reduction of ER (ER [2]; compound concentration 1 nM)	DC50 (ER [3]; T47D cells, 24 h, ELISA)	Dmax (ER [3]; [4])	Percentage reduction of ER (ER [2]; compound concentration 100 nM)	SMILES	Dmax (ER [3]; T47D)
11 to 50 nM	74%					O=C1CCC(N2Cc3cc(N4CC5(CCN(CC6CCN(c7ccc([C@@H]8c9ccc(O)cc9CC[C@@H]8c8ccccc8)cc7)CC6)CC5)C4)ccc3C2=O)C(=O)N1 (stereo partly shown) [Example 4]	
	47%		> 100 nM	< 50%		O=C1CCC(N2C(=O)c3ccc(N4CC5CN(CC6CCN(c7ccc([C@@H]8c9ccc(O)cc9CC[C@@H]8c8ccccc8)cc7)CC6)CC5C4)cc3C2=O)C(=O)N1 (stereo partly drawn) [Example 25, 2-(2,6-dioxopiperidin-3-yl)-5-(5-((1-(4-((1R,2S)-6-hydroxyl-2-phenyl-1,2,3,4-tetrahydronaphthalen-1-yl)phenyl)piperidin-4-yl)methyl)hexahydropyrrolo[3,4-c]pyrrole-2(1H)-yl)isoinodolin-1,3-dione]	
11 to 50 nM					50%	O=C1CCC(N2Cc3cc(N4CC5(CCN(CC6CCN(c7ccc([C@@H]8c9ccc(O)cc9CC[C@@H]8c8ccccc8)cc7)CC6)C5)C4)ccc3C2=O)C(=O)N1 (stereo partly drawn) [Example 31, 3-(5-(6-((1-(4-((1,2-cis)-6-hydroxyl-2-phenyl-1,2,3,4-tetrahydronaphthalen-1-yl)phenyl)piperidin-4-yl)methyl)-2,6-diazaspiro[3.4]octane-2-yl)-1-oxoisoinodolin-2-yl)piperidin-2,6-one]	
		39%	> 100 nM	< 50%		O=C1CCC(N2C(=O)c3ccc(N4CCC5(CCN(CC6CCN(c7ccc([C@@H]8c9ccc(O)cc9CC[C@@H]8c8ccccc8)cc7)CC6)C5)C4)cc3C2=O)C(=O)N1 (stereo partly drawn) [Example 53, 2-(2,6-dioxopiperidin-3-yl)-5-(7-((1-(4-((1R,2S)-6-hydroxyl-2-phenyl-1,2,3,4-tetrahydronaphthalen-1-yl)phenyl)piperidin-4-yl)methyl)-2,7-diazaspiro[4.4]nonane-2-yl)isoinodolin-1,3-dione]	
			> 100 nM	< 50%	57%	O=C1CCC(N2C(=O)c3ccc(N4CC5(CN(CC6CCN(c7ccc([C@@H]8c9ccc(O)cc9CC[C@@H]8c8ccccc8)cc7)CC6)C5)C4)cc3C2=O)C(=O)N1 (stereo partly drawn) [Example 54, 2-(2,6-dioxopiperidin-3-yl)-5-(6-((1-(4-((1R,2S)-6-hydroxyl-2-phenyl-1,2,3,4-tetrahydronaphthalen-1-yl)phenyl)piperidin-4-yl)methyl)-2,6-diazaspiro[3.3]heptan-2-yl)isoinodolin-1,3-dione]	
			> 100 nM	< 50%	25%	O=C1CCC(N2C(=O)c3ccc(N4CC(N5CCN(c6ccc([C@@H]7c8ccc(O)cc8CC[C@@H]7c7ccccc7)cc6)CC5)C4)cc3C2=O)C(=O)N1 (stereo partly drawn) [Example 55, 2-(2,6-dioxopiperidin-3-yl)-5-(3-(4-(4-((1R,2S)-6-hydroxyl-2-phenyl-1,2,3,4-tetrahydronaphthalen-1-yl)phenyl)piperazine-1-yl)azetidin-1-yl)isoinodolin-1,3-dione]	
< 10 nM		77%				O=C1CCC(N2Cc3cc(N4CC5(CN(CC6CCN(c7ccc([C@@H]8c9ccc(O)cc9OC[C@@H]8c8ccccc8)cc7)CC6)C5)C4)ccc3C2=O)C(=O)N1 (stereo partly drawn) [Example 57, 3-(5-(6-((1-(4-((3S,4R)-7-hydroxyl-3-phenyl-chroman-4-yl)phenyl)piperidin-4-yl)methyl)-2,6-diazaspiro[3.3]heptan-2-yl)-1-oxoisoinodolin-2-yl)piperidin-2,6-one]	

More lines, now with the values behind:

SMILES	IC50 [1]	Percentage reduction of ER (ER [2]; compound concentration 10 nM)	Percentage reduction of ER (ER [2]; compound concentration 1 nM)	DC50 (ER [3]; T47D cells, 24 h, ELISA)	Dmax (ER [3]; [4])	Percentage reduction of ER (ER [2]; compound concentration 100 nM)	Dmax (ER [3]; T47D)
O=C1CCC(N2Cc3cc(N4CCC5(CCN(CC6CCN(c7ccc([C@@H]8c9ccc(O)cc9OC[C@@H]8c8ccccc8)cc7)CC6)C5)C4)ccc3C2=O)C(=O)N1 (stereo partly drawn) [Example 8, 3-(5-(7-((1-(4-((3S,4R)-7-hydroxyl-3-phenyltryptophane-4-yl)phenyl)piperidin-4-yl)methyl)-2,7-diazaspiro[4.4]nonane-2-yl)-1-oxoisoinodolin-2-yl)piperidin-2,6-dione]	11 to 50 nM		47%				
O=C1CCC(N2Cc3cc(N4CCC(N5CC6(CCN(c7ccc([C@@H]8c9ccc(O)cc9CC[C@@H]8c8ccccc8)cc7)CC6)C5)CC4)ccc3C2=O)C(=O)N1 (stereo partly shown) [Example 12]		84%		10 to 50 nM			> 75%
O=C1CCC(N2Cc3cc(N4CCC5(CC4)CN(CC4CCN(c6ccc([C@@H]7c8ccc(O)cc8CC[C@@H]7c7ccccc7)cc6)CC4)C5)ccc3C2=O)C(=O)N1 (stereo partly drawn) [Example 27, 3-(5-(2-((1-(4-((1R,2S)-6-hydroxyl-2-phenyl-1,2,3,4-tetrahydronaphthalen-1-yl)phenyl)piperidin-4-yl)methyl)-2,7-diazaspiro[3.5]nonan-7-yl)-1-oxoisoinodolin-2-yl)piperidin-2,6-dione]			78%	> 100 nM			< 50%
O=C1CCC(N2Cc3cc(N4CC5(CCN(CC6CCN(c7ccc([C@H]8c9ccc(O)cc9OC[C@H]8c8ccccc8F)cc7)CC6)CC5)C4)ccc3C2=O)C(=O)N1 (stereo partly drawn) [Example 34, 3-(5-(7-((1-(4-((3R,4S)-3-(2-fluorophenyl)-7-hydroxychroman-4-yl)phenyl)piperidin-4-yl)methyl)-2,7-diazaspiro[3.5]nonane-2-yl)-1-oxoisoindol-2-yl)piperidin-2,6-dione]				> 100 nM	< 50%	51%	
O=C1CCC(N2Cc3cc(N4CCC5(CC4)CN(CC4CCN(c6ccc([C@@H]7c8ccc(O)cc8OC[C@@H]7c7ccccc7)cc6)CC4)C5)ccc3C2=O)C(=O)N1 (stereo partly drawn) [Example 58, 3-(5-(2-((1-(4-((3S,4R)-7-hydroxyl-3-phenyl-chroman-4-yl)phenyl)piperidin-4-yl)methyl)-2,7-diazaspiro[3.5]nonan-7-yl)-1-oxoisoinodolin-2-yl)piperidin-2,6-dione]	< 10 nM		76%				
